From patent publication US20250332300A1 (priority 2024, published 2025)
Where a name gives a salt, the structure may show the parent alone. Read-outs that look alike come from different tables or passages of the source. Values belong to the compound of their own block, whether it stands above or below them. Starred links: 1 amine or outer side, 2 acyl side, 3 side chain; linkers in the order of their positions; H or OH if unused. Positions of bridges follow the written chain, without caps; N, C: chain ends. Non-standard residues stand in square brackets, D forms with d. Residues, ends and D or L forms follow the SMILES beside them. Trp(5-OH) = N[C@@H](Cc1c[nH]c2ccc(O)cc12)C(=O)O; NMePhe(4-F) = CN[C@@H](Cc1ccc(F)cc1)C(=O)O; NMehPhe = CN[C@@H](CCc1ccccc1)C(=O)O; Aad = N[C@@H](CCCC(=O)O)C(=O)O; Gly(cPr) = N[C@H](C(=O)O)C1CC1; NMeDap = CN[C@@H](CN)C(=O)O; NMeC = CN[C@@H](CS)C(=O)O; NMeS = CN[C@@H](CO)C(=O)O; Dap = NC[C@H](N)C(=O)O; X5 = O=C(C[*:2])[*:1]

How the values were obtained:
human HER2 (23-652) [1] = target: T1, human HER2 (23-652) (Homo sapiens, UniProt P04626); assay: Surface plasmon resonance (SPR) for assessment of peptide affinity, human HER2; assay type: binding; design: towards human HER2 (23-652) and mouse HER2 (23-653); made in house
Method in brief: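 Binding kinetics fitted from sensorgrams with 280 s peptide association then 3000 s dissociation (30 uL/min), using HER2 (23-652) either directly immobilized (SA/CM5) or anti-Fc-captured; 3 M magnesium chloride used for regeneration.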

mouse HER2 (23-653) [2] = target: T2, mouse HER2 (23-653) (Mus musculus, UniProt P70424); assay: TR-FRET competition assay for peptide potency, mouse HER2; assay type: binding; design: mouse HER2 (23-653) using a Cy5 labeled peptide as a probe; made in house; host or cells: mammalian cells; details: TR-FRET competition with Cy5 labeled peptide probe, 0.1 nM mouse HER2, 24 h incubation; read-out: moHER2 TR-FRET IC50
mouse HER2 (23-653) [3] = target: T2, mouse HER2 (23-653); assay: Surface plasmon resonance (SPR) for assessment of peptide affinity, mouse HER2; assay type: binding; design: mouse HER2 (23-653) using a Cy5 labeled peptide as a probe; made in house; details: SPR, mouse HER2 extracellular domain, 25° C., 1:1 binding model; read-out: moHER2-SPR-ONC KD
Source text: Each protein was immobilized either onto a SA sensorchip (Cytiva, BR-1005-31) or CM5 sensorchip (Cytiva, BR-1005-30) to a density of 800-2000 RU.

human HER2 (23-652) [4] = target: T1, human HER2 (23-652); assay: TR-FRET competition assay for peptide potency, human HER2; assay type: binding; design: towards human HER2 (23-652) and mouse HER2 (23-653); made in house; host or cells: mammalian cells
[5] = SPR, human HER2 extracellular domain, 25° C., 1:1 binding model, read-out: huHER2-SPR-ONC KD

Compound: (3R,6S,9S,12S,15S,18S,21S,24S,27S)-9-((1H-indol-3-yl)methyl)-27-acetamido-N—((S)-1-amino-3-(4-fluorophenyl)-1-oxopropan-2-yl)-6-cyclopropyl-12-((5-hydroxy-1H-indol-3-yl)methyl)-24-(4-hydroxybenzyl)-15,21-bis(hydroxymethyl)-N,4,16,19-tetramethyl-5,8,11,14,17,20,23,26,30-nonaoxo-18-phenethyl-1-thia-4,7,10,13,16,19,22,25,29-nonaazacyclohentriacontane-3-carboxamide
ring closure, yield after HPLC (thioether bond, 31-membered ring, DIEA, ACN/water, […], with chain assembly): 6%

Compound: 4-(((3S,6S,9S,12S,15S,18S,21S,24S,27S)-9-((1H-indol-3-yl)methyl)-15-(4-acetamidobutyl)-6-cyclopropyl-3-(((S)-1-(((S)-1,6-diamino-1-oxohexan-2-yl)amino)-3-(4-fluorophenyl)-1-oxopropan-2-yl)(methyl)carbamoyl)-12-((5-hydroxy-1H-indol-3-yl)methyl)-24-(4-hydroxybenzyl)-21-(hydroxymethyl)-4,16,19-trimethyl-5,8,11,14,17,20,23,26,31-nonaoxo-18-phenethyl-1,4,7,10,13,16,19,22,25-nonaazacyclohentriacontan-27-yl)amino)-4-oxobutanoic acid TFA salt
ring closure, yield after HPLC (amide bond, 31-membered ring, PyAOP/Et3N, then TFA, DCM, 0.79 mM, 2 steps): 61%

Compound: (4R,7S,10S,13S,16S,19S,22S,25S,28R)-10-((1H-indol-3-yl)methyl)-28-amino-N—((S)-1-amino-3-(4-fluorophenyl)-1-oxopropan-2-yl)-7-cyclopropyl-13-((5-hydroxy-1H-indol-3-yl)methyl)-25-(4-hydroxybenzyl)-16,22-bis(hydroxymethyl)-N,5,17,20-tetramethyl-6,9,12,15,18,21,24,27-octaoxo-19-phenethyl-1,2-dithia-5,8,11,14,17,20,23,26-octaazacyclononacosane-4-carboxamide TFA salt
ring closure, yield after HPLC (disulfide bond, 29-membered ring, DMSO (air), DMSO/water 1/4, 1.88 mM, […]): 26%

Compound: 2-(4-(((S)-5-((S)-2-((3S,6S,9S,12S,15S,18S,21S,24S,27S)-9-((1H-indol-3-yl)methyl)-15-(4-acetamidobutyl)-27-(3-aminopropanamido)-12-((5-hydroxy-1H-indol-3-yl)methyl)-24-(4-hydroxybenzyl)-6-((S)-1-hydroxyethyl)-21-(hydroxymethyl)-N,4,16,19-tetramethyl-5,8,11,14,17,20,23,26,30-nonaoxo-18-phenethyl-1,4,7,10,13,16,19,22,25-nonaazacyclotriacontane-3-carboxamido)-3-(4-fluorophenyl)propanamido)-6-amino-6-oxohexyl)carbamoyl)piperazin-1-yl) acetic acid TFA salt
ring closure, yield after HPLC (amide bond, 30-membered ring, DIC/Oxyma, DMF, resin, […], 75.0 °C, with chain assembly): 4.7%

Compound: ((S)-2-((3S,6S,9S,12S,15S,18S,21S,24S,27S)-9-((1H-indol-3-yl)methyl)-27-acetamido-15-(4-acetamidobutyl)-6-cyclopropyl-12-((5-hydroxy-1H-indol-3-yl)methyl)-24-(4-hydroxybenzyl)-21-(hydroxymethyl)-N,4,16,19-tetramethyl-5,8,11,14,17,20,23,26,31-nonaoxo-18-phenethyl-1,4,7,10,13,16,19,22,25-nonaazacyclohentriacontane-3-carboxamido)-3-(4-fluorophenyl) propanoyl)-L-lysine TFA Salt
ring closure, yield after HPLC (amide bond, 31-membered ring, HATU/DIEA, DMF, resin, 10.0 mM, with chain assembly): 2.4%

Compound: 2-((1E,3E)-5-((E)-1-(6-((3-(((3S,6S,9S,12S,15S,18S,21S,24S,27S)-9-((1H-indol-3-yl)methyl)-15-(4-acetamidobutyl)-3-(((S)-1-(((S)-1-amino-6-(4-(carboxymethyl)piperazine-1-carboxamido)-1-oxohexan-2-yl)amino)-3-(4-fluorophenyl)-1-oxopropan-2-yl)(methyl)carbamoyl)-12-((5-hydroxy-1H-indol-3-yl)methyl)-24-(4-hydroxybenzyl)-6-((S)-1-hydroxyethyl)-21-(hydroxymethyl)-4,16,19-trimethyl-5,8,11,14,17,20,23,26,30-nonaoxo-18-phenethyl-1,4,7,10,13,16,19,22,25-nonaazacyclotriacontan-27-yl)amino)-3-oxopropyl)amino)-6-oxohexyl)-3,3-dimethyl-5-sulfoindolin-2-ylidene)penta-1,3-dien-1-yl)-1-ethyl-3,3-dimethyl-3H-indol-1-ium-5-sulfonate TFA salt
ring closure, yield after HPLC (amide bond, 30-membered ring, PyAOP/DIEA, DMF, resin, […], 50.0 °C, with chain assembly): 2%

Compound: Ac-hGlu-Tyr-Ser-MehPhe-MeLys(COCH2OH)-Trp(5-OH)-Trp-Gly(cPr)-MeDap-MePhe(4-F)-Lys(Alloc)-NH2?
ring closure, yield after HPLC (the molecule shown is the open-chain precursor, amide bond, 31-membered ring, PyAOP/DIEA, then Pd(PPh3)4/PhSiH3, DMF, 5.0 mM, with chain assembly): 10.3%

Compound: HOOC(CH2)4CO-Tyr-Ser-MehPhe-MeLys(Ac)-Trp(5-OH)-Trp-Gly(cPr)-MeDap-MePhe(4-F)-Lys(Boc)-NH2?
ring closure, yield after HPLC (the molecule shown is the open-chain precursor, amide bond, 31-membered ring, PyAOP/Et3N, DCM, 0.52 mM): 51%

Kd (human HER2 (23-652) [1]; [5]): 0.248 µM
IC50 (mouse HER2 (23-653) [2]): 0.627 µM
Kd (mouse HER2 (23-653) [3]): 0.21 µM
IC50 (human HER2 (23-652) [4]; read-out: huHER2 TR-FRET IC50): 0.391 µM
Compound: CC(=O)N[C@H]1CCC(=O)NC[C@@H](C(=O)N(C)[C@@H](Cc2ccc(F)cc2)C(N)=O)N(C)C(=O)[C@H](C2CC2)NC(=O)[C@H](Cc2c[nH]c3ccccc23)NC(=O)[C@H](Cc2c[nH]c3ccc(O)cc23)NC(=O)[C@H](CO)N(C)C(=O)[C@H](CCc2ccccc2)N(C)C(=O)[C@H](CCCC(=O)O)NC(=O)[C@H](Cc2ccc(O)cc2)NC1=O [Example A27, 4-((2S,5S,8S,11S,14S,17S,20S,23S,29S)-17-((1H-indol-3-yl)methyl)-29-acetamido-23-(((S)-1-amino-3-(4-fluorophenyl)-1-oxopropan-2-yl)(methyl)carbamoyl)-20-cyclopropyl-14-((5-hydroxy-1H-indol-3-yl)methyl)-2-(4-hydroxybenzyl)-11-(hydroxymethyl)-7,10,22-trimethyl-3,6,9,12,15,18,21,26,30-nonaoxo-8-phenethyl-1,4,7,10,13,16,19,22,25-nonaazacyclotriacontan-5-yl)butanoic acid] (Ac-EY[Aad][NMehPhe][NMeS][Trp(5-OH)]W[Gly(cPr)][NMeDap][NMePhe(4-F)]-NH2; lactam 1-9)

Kd (human HER2 (23-652) [1]; [5]): < 0.0001 µM
IC50 (mouse HER2 (23-653) [2]): 0.0002 µM
Kd (mouse HER2 (23-653) [3]): < 0.0001 µM
IC50 (human HER2 (23-652) [4]; TR-FRET competition with Cy5 labeled peptide probe, 0.1 nM human HER2, 24 h incubation, read-out: huHER2 TR-FRET IC50): < 0.0001 µM
Compound: CC(=O)NCCCC[C@H]1C(=O)N[C@@H](Cc2c[nH]c3ccc(O)cc23)C(=O)N[C@@H](Cc2c[nH]c3ccccc23)C(=O)N[C@@H](C2CC2)C(=O)N(C)[C@H](C(=O)N(C)[C@@H](Cc2ccc(F)cc2)C(=O)N[C@@H](CCCCNC(=O)CN2CCN(CC(=O)O)CCN(CC(=O)O)CCN(CC(=O)O)CC2)C(N)=O)CNC(=O)CCC[C@H](NC(=O)CO)C(=O)N[C@@H](Cc2ccc(O)cc2)C(=O)N[C@@H](CO)C(=O)N(C)[C@@H](CCc2ccccc2)C(=O)N1C [Example C15]

Compound: CN1C(=O)[C@H](CO)NC(=O)[C@H](Cc2ccc(O)cc2)NC(=O)[C@@H](N)CNC(=O)CSC[C@@H](C(=O)N(C)[C@@H](Cc2ccc(F)cc2)C(N)=O)N(C)C(=O)[C@H](C2CC2)NC(=O)[C@H](Cc2c[nH]c3ccccc23)NC(=O)[C@H](Cc2c[nH]c3ccc(O)cc23)NC(=O)[C@H](CO)N(C)C(=O)[C@@H]1CCc1ccccc1 [Example A53, (3R,6S,9S,12S,15S,18S,21S,24S,27S)-9-((1H-indol-3-yl)methyl)-27-amino-N—((S)-1-amino-3-(4-fluorophenyl)-1-oxopropan-2-yl)-6-cyclopropyl-12-((5-hydroxy-1H-indol-3-yl)methyl)-24-(4-hydroxybenzyl)-15,21-bis(hydroxymethyl)-N,4,16,19-tetramethyl-5,8,11,14,17,20,23,26,30-nonaoxo-18-phenethyl-1-thia-4,7,10,13,16,19,22,25,29-nonaazacyclohentriacontane-3-carboxamide TFA salt] (H-[Dap]YS[NMehPhe][NMeS][Trp(5-OH)]W[Gly(cPr)][NMeC][NMePhe(4-F)]-NH2; linker 1-9 via X5)
Kd (human HER2 (23-652) [1]): 0.132 µM
IC50 (mouse HER2 (23-653) [2]): 0.466 µM
Kd (mouse HER2 (23-653) [3]): 0.154 µM
IC50 (human HER2 (23-652) [4]; huHER2 TR-FRET IC50, TR-FRET competition with Cy5 labeled peptide probe, 0.1 nM human HER2, 24 h incubation): 0.163 µM
